pIC50: −log10 of the molar value.
Tests used:
Format in all cases: cell-based
[1] = test system: intracellular caspase-1 activity; experiment: Intracellular caspase-1 activity in human PBMCs stimulated with LPS + nigericin (Caspase-Glo); details: Human PBMC, read-out: Geo Av IC50, Caspase-1
Protocol: Cell viability was determined by addition of an equal volume of CellTiter-Glo® 2.0 reagent (Promega) to the remaining cells/supernatant in each well. Intracellular Caspase-1 activity was measured using the Caspase-Glo® assay (Promega) according to the manufacturer’s instructions. The biochemical capsase-1 assay was conducted at Reaction Biology Corporation (Malvern, USA). Human IL-1β, IL-1α, and TNFα and mouse IL-1β were measured in cell culture supernatants using homogeneous time resolved fluorescence assay kits (HTRF, Cisbio, Codolet, France). Human IL-18 was measured in cell culture supernatants using an ELISA kit (R&D Systems, Minneapolis, MN, USA). Plasma IL-1β concentrations were determined by Quantikine® ELISA (R&D Systems, Minneapolis, MN).
(§1) 4H). MS: m/z 433.1 (M+H+).
(§2) Inflammasome activation.PBMCs (iXCells Biotechnologies, San Diego, USA) were thawed the day before the assay and seeded in complete medium (RPMI 1640 medium with GlutaMAX, supplemented with an additional 2.5 g/L D-glucose, 10% Fet al Bovine Serum, 100 mM Sodium Pyruvate, 1% Penicillin/Streptomycin, 10 mM HEPES and 0.05 mM β -mercaptoethanol) in polystyrene V-bottom 96-well plates at 5x10^4 cells per well and incubated overnight at 37°C with 5% CO 2. The next day, PBMC media was r eplaced with serum-fr ee media p rior t o the assay. […]

TNFα production = TNFα production in mouse BMDMs stimulated by LPS + nigericin; details: Mouse BMDM, read-out: Geo Av IC50, TNFα
Description: Inflammasome activation and whole blood assays were essentially carried out as described earlier. Details can be found in the supplementary information section accompanying this publication. A protocol for blood draws from healthy volunteers and use of the blood in preclinical assays was approved by Western Institutional Review Board, Inc (Puyallup, WA, USA). Informed consent was obtained from each donor prior to the first blood draw.
as §1
as §2, with “2.” for “2. The next day, PBMC media was r eplaced with serum-fr ee media p rior t o the assay.”
flagellin, prepared in Opt iMEM and combined with Lipofectamine 2000. […] After priming Nlrp3 -/- mBMDMs with 100 ng/mL of LPS for 3- 5 h, cells were exposed to 100 ng/mL L18- MDP and incubated overnight.At the end of the incubation period of the assays above, plates were briefly centri fuged and hal f of the cell culture supern atant remo ved and either analysed i mmediately or stored at - 80°C for subs equent cytokine […]

[2] = target: T1, NLRP3 inflammasome assembly (ASC speck) (Mus musculus, UniProt Q8R4B8); experiment: Inhibition of ASC speck formation by immunofluorescence in LPS + nigericin treated mouse BMDMs
T1 construct: host or cells: mouse PBMCs; mouse bone-marrow derived macrophages; mouse whole blood (C57BL/6 in the ex vivo study)
Protocol: Mouse BMDMs (2.5 × 10^4 cells/well) were plated in Collagen-IV coated 96-well plates. On the day of the assay, cells were washed with serum-free media then primed with 100 ng/mL LPS for 3 h in DMEM/F12 (1:1) containing L-glutamine. JT002 or DMSO was added to each well and incubated at 37 °C for 30 min prior to stimulation with 10 μM nigericin for 1.5 h. Cells were briefly centrifuged, rinsed with PBS, and fixed with 4% formaldehyde in PBS overnight at 4 °C. Cells were blocked and permeabilized in PBS with 10% goat serum, 1% FBS, 0.5% Triton X-100 for 30 min at 37 °C and incubated with ASC antibody (Millipore-Sigma, Cat #04-147) overnight at 4 °C. Cells were incubated with anti-mouse IgG Alexa Fluor-488 for 1 h at 37 °C. Nuclei were stained with Hoechst 33342 in PBS for 5 min and imaged using a CellInsight CX7 High-Content Screening Platform (ThermoFisher) at Phenovista Biosciences (San Diego, CA, USA).

T1 sequence (Q8R4B8 whole entry): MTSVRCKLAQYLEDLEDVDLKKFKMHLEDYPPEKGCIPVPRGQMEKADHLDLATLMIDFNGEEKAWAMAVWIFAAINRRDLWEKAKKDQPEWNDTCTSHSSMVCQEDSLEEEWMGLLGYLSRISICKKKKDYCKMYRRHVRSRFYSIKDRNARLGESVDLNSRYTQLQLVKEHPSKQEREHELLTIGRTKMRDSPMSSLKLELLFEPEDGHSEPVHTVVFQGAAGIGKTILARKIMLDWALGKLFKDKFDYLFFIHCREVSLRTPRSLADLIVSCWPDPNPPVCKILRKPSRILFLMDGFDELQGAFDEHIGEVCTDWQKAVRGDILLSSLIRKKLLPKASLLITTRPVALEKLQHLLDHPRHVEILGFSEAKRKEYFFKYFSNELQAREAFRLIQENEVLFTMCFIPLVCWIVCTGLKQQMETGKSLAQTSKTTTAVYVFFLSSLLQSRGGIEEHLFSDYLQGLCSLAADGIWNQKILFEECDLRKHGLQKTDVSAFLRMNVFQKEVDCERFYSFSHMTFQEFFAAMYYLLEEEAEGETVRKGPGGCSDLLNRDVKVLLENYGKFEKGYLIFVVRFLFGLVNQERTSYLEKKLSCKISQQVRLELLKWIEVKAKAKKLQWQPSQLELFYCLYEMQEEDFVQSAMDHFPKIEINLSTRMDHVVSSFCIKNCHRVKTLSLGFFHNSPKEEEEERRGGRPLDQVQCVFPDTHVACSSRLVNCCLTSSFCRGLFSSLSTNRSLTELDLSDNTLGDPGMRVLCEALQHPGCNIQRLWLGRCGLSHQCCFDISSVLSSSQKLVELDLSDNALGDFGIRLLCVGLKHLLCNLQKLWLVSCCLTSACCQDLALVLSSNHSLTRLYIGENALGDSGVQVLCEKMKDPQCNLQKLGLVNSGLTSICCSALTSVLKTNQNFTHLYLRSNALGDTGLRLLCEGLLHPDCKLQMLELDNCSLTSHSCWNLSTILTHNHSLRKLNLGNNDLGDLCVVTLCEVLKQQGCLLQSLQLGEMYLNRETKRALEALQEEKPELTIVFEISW

## CO[C@@H]1COc2c(S(=O)(=O)NC(=O)Nc3c4c(cc5c3CCC5)CCC4)cnn2C1 [JT002]
[1]
  pIC50: 8.10
TNFα production
  pIC50: < 5.00
[2]; Mouse BMDM, read-out: Geo Av IC50, ASC specks
  pIC50: 8.52
[2]; mBMDMs, 2 µM JT002 prior to NLRP3 activation
  ASC speck formation: completely prevented ASC speck formation

Source: publication PMC10439952, “JT002, a small molecule inhibitor of the NLRP3 inflammasome for the treatment of autoinflammatory disorders” (Scientific Reports, 2023)
